From PMC2745609 (Journal of medicinal chemistry, 2009)

What was measured:
HIV-1lai = experiment: Antiviral activity in MT-2 human T-lymphoid cells exposed to HIV-1LAI, MTT assay; type: cell-based; conditions: for IC50: Human immunodeficiency virus 1, MT2, in Homo sapiens
[1] = tested on: HIV-1ERS104pre (wild-type); experiment: Anti-HIV activity in PHA-PBM, p24 Gag production, wild-type clinical isolate; type: cell-based; conditions: Human immunodeficiency virus 1, PBMC, read-out: IC50 against HIV-1ERS104pre
HIV-1 protease = HIV-1 protease (Human immunodeficiency virus type 1 group M subtype B, UniProt P04585); experiment: HIV-1 protease enzyme inhibition; type: biochemical; conditions: for fold improvement of enzyme Ki over 17a: relative to 17a

Compound	IC50 (HIV-1lai) [nM]	IC50 [1] [nM]	other results
CC(C)CN(C[C@@H](O)[C@H](Cc1ccccc1)NC(=O)O[C@H]1CCOC1)S(=O)(=O)c1ccc(N)cc1 [amprenavir, reference compound]	30	25	–
COc1ccc(S(=O)(=O)N(C[C@@H]2CCC(=O)N2)C[C@@H](O)[C@H](Cc2ccccc2)NC(=O)O[C@@H]2C[C@@H]3CCO[C@@H]3C2)cc1 [Inhibitor 17b, (3aS,5R,6aR)-Hexahydro-2H–cyclopenta[b]furan-5-yl-(2S,3R)-3-hydroxy-4-(4-methoxy-N-(((S)-5-oxopyrrolidin-2-yl)methyl)phenylsulfonamido)-1-phenylbutan-2-ylcarbamate]	–	–	fold improvement of enzyme Ki over 17a (HIV-1 protease): 3 fold
COc1ccc(S(=O)(=O)N(C[C@H]2CCC(=O)N2)C[C@@H](O)[C@H](Cc2ccccc2)NC(=O)O[C@H]2CO[C@H]3OCC[C@H]32)cc1 [Inhibitor 19a, (3R,3aS,6aR)-Hexahydrofuro[2,3-b]furan-3-yl(2S,3R)-3-hydroxy-4-(4-methoxy-N-(((R)-5-oxopyrrolidin-2-yl)methyl)phenylsulfonamido)-1-phenylbutan-2ylcarbamate]	–	–	fold improvement of enzyme Ki over 17a (HIV-1 protease): 10 fold
Nc1ccc(S(=O)(=O)N(C[C@@H]2COC(=O)N2)C[C@@H](O)[C@H](Cc2ccccc2)NC(=O)O[C@H]2CO[C@H]3OCC[C@H]32)cc1 [Inhibitor 30, (3R,3aS,6aR)-hexahydrofuro[2,3-b]furan-3-yl-(2S,3R)-4-(4-amino-N-(((R)-2-oxooxazolidin-4-yl)methyl)phenylsulfonamido)-3-hydroxy-1-phenylbutan-2-ylcarbamate]	> 1000	–	–
COc1ccc(S(=O)(=O)N(C[C@@H]2CCC(=O)N2)C[C@@H](O)[C@H](Cc2ccccc2)NC(=O)O[C@H]2CO[C@H]3OCC[C@H]32)cc1 [Inhibitor 17a, (3R,3aS,6aR)-Hexahydrofuro[2,3-b]furan-3-yl(2S,3R)-3-hydroxy-4-(4-methoxy-N-(((S)-5-oxopyrrolidin-2-yl)methyl)phenylsulfonamido)-1-phenylbutan-2-yl-carbamate]	–	–	Ki (HIV-1 protease; Ki (nM), enzyme inhibitory potency): 1 nM
Nc1ccc(S(=O)(=O)N(C[C@@H]2CCC(=O)N2)C[C@@H](O)[C@H](Cc2ccccc2)NC(=O)O[C@H]2CO[C@H]3OCC[C@H]32)cc1 [Inhibitor 18a, (3R,3aS,6aR)-Hexahydrofuro[2,3-b]furan-3-yl(2S,3R)-4-(4-amino-N-(((S)-5-oxopyrrolidin-2-yl)methyl)phenylsulfonamido)-3-hydroxy-1-phenylbutan-2-ylcarbamate]	> 1000	–	–
COc1ccc(S(=O)(=O)N(C[C@H]2CCC(=O)N2)C[C@@H](O)[C@H](Cc2ccccc2)NC(=O)O[C@@H]2C[C@@H]3CCO[C@@H]3C2)cc1 [Inhibitor 19b, (3aS,5R,6aR)-Hexahydro-2H–cyclopenta[b]furan-5-yl-(2S,3R)-3-hydroxy-4-(4-methoxy-N-(((R)-5-oxopyrrolidin-2-yl)methyl)phenylsulfonamido)-1-phenylbutan-2-ylcarbamate]	–	28	fold improvement in antiviral activity relative to 17b (HIV-1lai; relative to epimeric (S)-pyrrolidinone derivative 17b): 10 fold
CC(C)(C)NC(=O)[C@@H]1C[C@@H]2CCCC[C@@H]2CN1C[C@@H](O)[C@H](Cc1ccccc1)NC(=O)[C@H](CC(N)=O)NC(=O)c1ccc2ccccc2n1 [saquinavir, reference compound]	15	–	–
CC(C)(C)NC(=O)[C@@H]1CN(Cc2cccnc2)CCN1C[C@@H](O)C[C@@H](Cc1ccccc1)C(=O)N[C@H]1c2ccccc2C[C@H]1O [indinavir, reference compound]	30	28	–
